Data on 8 compounds can be found in US20220041559A1, “BENZO-AND PYRIDO-PYRAZOLES AS PROTEIN KINASE INHIBITORS” (ROTTAPHARM BIOTECH S.R.L., priority 2019, published 2022).

Structures are written as SMILES. Like-named read-outs stand apart in the source and are kept apart here.

Data set [1] is described as follows: Pharmacokinetics in CD1 mice, iv and po. As to conditions: 3 mg/kg; for half-life: read-out: t½* (converted). The class given is in vivo.
The target of data set [2] is EGFR (Homo sapiens, UniProt P00533). The data set can be described thus: ADP-Glo in vitro kinase assay, EGFR kinase inhibition. More on the design: purchased SignalChem. Particulars: for IC50: ATP 10 μM, 30 minutes at room temperature; for EGFR kinase inhibition, result in words: text summary of Table 18. The class given is biochemical. The protocol: (§1) The ADP-Glo™ Kinase Assay (Promega), monitoring ADP produced in the kinase reaction, was performed in two steps. In the first one, after the kinase reaction, the ADP-Glo™ Reagent is added to terminate the kinase reaction and deplete the remaining ATP. In the second step, the Kinase Detection Reagent is added to simultaneously convert ADP to ATP (ATPn or newly synthesized ATP) and introduce luciferase and luciferin, allowing the ATPn to be measured (luciferase/luciferin reaction). The amount of light generated correlates with the amount of ATPn (indirectly with the ADP produced in kinase reaction).
(§2) Kinase reaction was performed in 10 μl in a white 384-well plate, inhibitor solutions in DMSO/Kinase buffer (40 mM Tris-Cl, 20 mM MgCl2, 0.1 mg/ml BSA, 50 μM DTT, pH 7.5) and EGFR kinase in Kinase buffer (SignalChem, 2.5 ng/μl final concentration in assay) were pre-incubate 15 minutes at room temperature. At the kinase concentration selected a signal-to negative control ratio >10 was calculated, according to supplier indication. In samples representing the Total enzymatic activity (no inhibitor) or the negative control (no enzyme), inhibitor solution was replaced by diluents (1 DMSO in kinase buffer, final concentration) or ultra-pure water, respectively.
(§3) The range of inhibitor concentrations was from 10^−11 M up to 3×10^−6 M (final concentration in assay) and each experimental point was performed in duplicate.
(§4) To start the reaction, a substrate/ATP mix (ATP 10 μM final concentration, near to ATP Km value) was added to each sample and after 30 minutes incubation at room temperature, ADP-Glo™ Reagent and Kinase Detection Reagent, incubated in sequence according to the respective incubation time and supplier indication, allowed to stop and develop the kinase reaction. The luminescence was measured with a plate-reading luminometer (Envision 2104 Multilabel reader, PerkinElmer). The percentage of inhibition was calculated towards the Total enzymatic activity and the corresponding curves were analyzed by non linear curve fitting (GraphPad software, version 7 for Windows), allowing to calculate the IC50 value±standard error of the estimate.

For data set [3], the target named is T1, VEGFR2 (KDR) kinase (Homo sapiens, UniProt P35968).
T1 construct: purchased SignalChem
The data set can be described thus: ADP-Glo in vitro kinase assay, VEGFR2 kinase inhibition. As to conditions: for IC50: ATP 50 μM, 30 minutes at room temperature; for VEGFR2 kinase inhibition, result in words: Table 19. It counts as biochemical. Here is the method: as §1
as §2, with “VEGFR2 (KDR)” for “EGFR”, “0.5” for “2.5”, “selected,” for “selected”, “activity” for “activity (no inhibitor)”
as §3
as §4, with “(50” for “(ATP 10”, “value” for “estimate.”
For orientation: ADP-Glo first removes unused ATP, then detects ADP through luciferase.

Data set [4] concerns the target T2, FYN (Homo sapiens, UniProt P06241).
T2 construct: purchased CarnaBioscience
Kind of data set: Z'-LYTE in vitro kinase assay, FYN kinase inhibition. It counts as biochemical. As to conditions: near-Km ATP, 60 minutes at 25° C. The protocol:
Assays to determine the kinase inhibitory activity of compounds were performed using an automatic liquid handling device (Microlab STAR Hamilton) and Z′-LYTE™ Kinase Assay Platform (Invitrogen), a Fluorescence Resonance Energy Transfer (FRET)-based assay platform compatible with high-throughput screening (HTS) applications. The assay employs a fluorescence-based, coupled-enzyme format and utilizes the differential sensitivity of phosphorylated and non-phosphorylated peptides to proteolytic cleavage.
Test compounds were evaluated towards active FYN (CarnaBioscience). The enzyme was incubated in a 384 low-volume microplate with a synthetic peptide-substrate, ATP and different inhibitor concentrations, ranging from 10^−10 M up to 10^−5 M final concentration. Samples representing the 0% inhibition (or total enzymatic activity) were in the presence of compound diluent (1% DMSO final) in Reaction Buffer (50 mM Hepes, 10 mM MgCl2, 1 mM EGTA, 0.01% Brij-35, pH 7.5).
A near-Km ATP concentrations for the kinase and an optimal enzyme concentration that phosphorylates 20-40% of the Z′-LYTE™ Tyr 2 Peptide in a one-hour incubation, were selected. All reagents were diluted in reaction buffer and the kinase reaction was carried out in a total volume of 10 μl, for 60 minutes at 25° C. The 0% Phosphorylation (i.e. no ATP) and 100% Phosphorylation (i.e. synthetically phosphorylated peptide supplied) Assay Controls, included in each plate, allowed to calculate the percent phosphorylation achieved in the specific reaction well. The 0% Inhibition and 0% Phosphorylation (i.e. 100% Inhibition) Controls define the dynamic range in the screen. At the end of incubation, a secondary reaction (the Development Reaction) started by adding 5 μl of Development Reagent, containing a site-specific protease that recognizes and cleaves non-phosphorylated peptides, and was interrupted after 60 minutes with 5 μl/sample of Stop Reagent. Measurement of the Coumarin (Ex. 400 nm, Em. 460 nm) and Fluorescein (Ex. 400 nm, Em. 535 nm) emission signals were performed by a fluorescence plate reader (Envision, PerkinElmer).
Results are expressed as percentage of inhibition and the IC50 values were calculated by non-linear curve fitting using GraphPad™ Prism software.

For data set [5], the target named is human FynB (Homo sapiens, UniProt P06241). Kind of data set: Inhibition of FynB-induced Tau(Y18)-phosphorylation (cell-based assay, HEK293). As to conditions: for IC50: HEK293 over-expressing FynB and Tau 0N4R, incubation 6 or 24 hours, ELISA; for Inhibition of FynB-induced Tau(Y18)-phosphorylation, result in words: summary of Table 20. Here is the method: HEK293 cells (Human Embryonic Kidney 293) were seeded at 6×10^5 in poly-D-lysine 12 w microplates and grown adherent in medium DMEM/10% FBS at 37° C. with 5% CO2. After 24 h, cells were transfected in order to over-express either constitutively active form of human FynB and Tau protein (isoform 0N4R), through an optimized Lipofectamine® 3000 Transfection protocol (Life Technologies™). A non-transfected sample (negative control) was included in every experiment.
Twenty-four hours from transfection, treatments of cells were performed by adding fresh medium containing diluent (DMSO 0.1% final concentration) or test compounds. The incubation was carried out for 6 or 24 hours at 37° C. with 5% CO2. All experimental conditions were performed in duplicate.
At the end of the incubation, the medium was removed and cellular lysates were obtained by adding M-PER lysis buffer containing a 1× Protease/Phosphatase inhibitors cocktail. Then, lysates were transferred into Eppendorf tubes, sonicated and stored at −80° C.
Protein content was measured by Bradford method. Lysates were analyzed by a customized ELISA assay for Tau phosphorylation (Tyrosine 18 residue-Fyn mediated) and Total amount determination. The net OD values were used to calculate the inhibitory effect of compounds.
(In general: ELISA stands for enzyme-linked immunosorbent assay.)

Sequence of EGFR (P00533 25-1210): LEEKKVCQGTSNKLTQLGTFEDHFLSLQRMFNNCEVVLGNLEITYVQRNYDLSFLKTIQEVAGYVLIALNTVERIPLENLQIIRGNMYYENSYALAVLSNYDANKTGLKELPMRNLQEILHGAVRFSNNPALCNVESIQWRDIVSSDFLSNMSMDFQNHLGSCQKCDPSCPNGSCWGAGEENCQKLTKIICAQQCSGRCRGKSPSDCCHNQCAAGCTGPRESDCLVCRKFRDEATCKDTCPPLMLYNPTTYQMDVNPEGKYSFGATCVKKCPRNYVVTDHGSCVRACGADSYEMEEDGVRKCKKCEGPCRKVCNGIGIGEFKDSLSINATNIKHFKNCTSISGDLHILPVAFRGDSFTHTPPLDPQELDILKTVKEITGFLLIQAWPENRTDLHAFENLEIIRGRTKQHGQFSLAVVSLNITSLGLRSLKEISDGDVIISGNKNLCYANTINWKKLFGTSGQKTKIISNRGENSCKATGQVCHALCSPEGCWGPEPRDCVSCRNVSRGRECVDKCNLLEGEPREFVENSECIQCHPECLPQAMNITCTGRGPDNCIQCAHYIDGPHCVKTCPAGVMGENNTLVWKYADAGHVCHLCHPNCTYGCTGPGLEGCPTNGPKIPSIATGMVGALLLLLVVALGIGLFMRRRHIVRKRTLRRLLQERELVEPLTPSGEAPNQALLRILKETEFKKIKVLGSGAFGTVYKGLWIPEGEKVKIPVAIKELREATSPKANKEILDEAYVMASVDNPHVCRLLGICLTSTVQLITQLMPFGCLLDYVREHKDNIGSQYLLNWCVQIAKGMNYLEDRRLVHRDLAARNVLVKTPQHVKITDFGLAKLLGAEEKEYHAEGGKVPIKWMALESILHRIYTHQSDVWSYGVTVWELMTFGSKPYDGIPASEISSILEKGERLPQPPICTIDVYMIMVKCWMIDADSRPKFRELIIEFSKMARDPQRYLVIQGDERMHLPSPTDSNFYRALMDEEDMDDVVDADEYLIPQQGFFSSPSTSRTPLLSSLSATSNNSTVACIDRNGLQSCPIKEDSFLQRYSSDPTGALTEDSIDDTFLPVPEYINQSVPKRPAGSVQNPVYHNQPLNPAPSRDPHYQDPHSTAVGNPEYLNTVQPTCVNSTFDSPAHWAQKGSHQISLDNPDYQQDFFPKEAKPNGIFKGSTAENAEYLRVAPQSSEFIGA
T2 sequence (P06241 whole entry): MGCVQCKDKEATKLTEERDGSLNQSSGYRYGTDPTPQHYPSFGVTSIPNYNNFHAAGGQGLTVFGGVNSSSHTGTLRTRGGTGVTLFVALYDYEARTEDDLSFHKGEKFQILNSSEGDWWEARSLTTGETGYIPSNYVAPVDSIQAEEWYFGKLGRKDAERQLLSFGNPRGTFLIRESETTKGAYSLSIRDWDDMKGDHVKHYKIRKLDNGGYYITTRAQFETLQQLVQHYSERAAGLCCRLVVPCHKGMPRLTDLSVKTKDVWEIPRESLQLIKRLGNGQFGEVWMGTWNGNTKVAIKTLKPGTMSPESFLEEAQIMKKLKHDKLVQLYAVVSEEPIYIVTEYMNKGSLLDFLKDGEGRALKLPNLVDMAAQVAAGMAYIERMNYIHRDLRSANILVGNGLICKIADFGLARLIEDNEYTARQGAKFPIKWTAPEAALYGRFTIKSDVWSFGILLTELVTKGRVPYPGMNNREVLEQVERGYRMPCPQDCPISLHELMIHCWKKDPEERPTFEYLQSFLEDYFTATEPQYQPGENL
Sequence of human FynB (P06241 271-524 limits assumed): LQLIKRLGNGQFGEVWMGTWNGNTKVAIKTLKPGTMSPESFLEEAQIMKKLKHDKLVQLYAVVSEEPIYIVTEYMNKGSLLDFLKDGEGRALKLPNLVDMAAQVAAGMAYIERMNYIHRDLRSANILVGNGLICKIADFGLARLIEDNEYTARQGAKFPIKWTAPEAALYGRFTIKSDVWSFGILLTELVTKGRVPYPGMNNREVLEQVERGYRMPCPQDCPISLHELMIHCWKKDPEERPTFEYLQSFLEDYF
T1 sequence (P35968 20-1356): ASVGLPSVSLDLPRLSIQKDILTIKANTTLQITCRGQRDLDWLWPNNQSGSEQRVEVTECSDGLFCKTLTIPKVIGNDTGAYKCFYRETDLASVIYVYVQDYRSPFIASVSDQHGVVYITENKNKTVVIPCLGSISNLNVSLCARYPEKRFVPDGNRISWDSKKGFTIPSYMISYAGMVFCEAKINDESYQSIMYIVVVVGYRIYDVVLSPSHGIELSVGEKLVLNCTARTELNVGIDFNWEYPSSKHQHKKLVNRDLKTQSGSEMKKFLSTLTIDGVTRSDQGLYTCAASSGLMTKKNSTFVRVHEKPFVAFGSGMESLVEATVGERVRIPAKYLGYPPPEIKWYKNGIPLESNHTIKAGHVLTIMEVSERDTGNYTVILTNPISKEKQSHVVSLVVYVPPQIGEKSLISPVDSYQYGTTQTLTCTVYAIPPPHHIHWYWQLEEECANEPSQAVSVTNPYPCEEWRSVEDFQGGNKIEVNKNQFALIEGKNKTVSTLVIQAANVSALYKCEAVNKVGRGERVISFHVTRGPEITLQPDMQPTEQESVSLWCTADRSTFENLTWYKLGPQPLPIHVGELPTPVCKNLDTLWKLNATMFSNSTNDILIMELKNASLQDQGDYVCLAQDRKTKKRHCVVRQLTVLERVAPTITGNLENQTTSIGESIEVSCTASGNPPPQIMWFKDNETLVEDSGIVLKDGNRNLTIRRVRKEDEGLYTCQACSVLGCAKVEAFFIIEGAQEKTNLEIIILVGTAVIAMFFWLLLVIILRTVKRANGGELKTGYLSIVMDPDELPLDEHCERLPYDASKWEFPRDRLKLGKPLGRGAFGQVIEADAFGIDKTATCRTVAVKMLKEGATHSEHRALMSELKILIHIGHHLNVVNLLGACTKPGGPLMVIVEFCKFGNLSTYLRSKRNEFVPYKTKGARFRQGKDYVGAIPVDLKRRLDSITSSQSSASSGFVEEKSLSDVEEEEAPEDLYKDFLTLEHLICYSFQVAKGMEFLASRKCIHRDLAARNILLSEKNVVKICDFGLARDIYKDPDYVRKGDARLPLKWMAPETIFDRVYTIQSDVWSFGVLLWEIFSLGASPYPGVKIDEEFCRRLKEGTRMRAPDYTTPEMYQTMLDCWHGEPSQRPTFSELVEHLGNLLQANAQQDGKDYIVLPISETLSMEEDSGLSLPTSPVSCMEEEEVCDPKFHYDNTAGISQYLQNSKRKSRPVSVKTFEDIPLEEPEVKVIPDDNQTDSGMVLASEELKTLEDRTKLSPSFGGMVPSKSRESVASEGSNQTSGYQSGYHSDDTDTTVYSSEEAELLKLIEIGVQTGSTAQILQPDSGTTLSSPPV

As usually defined, the AUC(0-inf) is total exposure, with the tail of the curve extrapolated. By AUC(0-t) is commonly meant exposure summed from dosing to a finite time, without extrapolation to infinity. Higher therefore signals more exposure. What is called Cmax is the highest concentration seen after dosing. The term Tmax denotes the time at which the peak concentration occurs. For orientation: bioavailability means the share of a dose that reaches the circulation, judged against a reference dose that is usually intravenous. Read a high bioavailability as good availability. Usually IC50 stands for the concentration that gives 50% inhibition. Take `CN1CCC(c2ccc(C(=O)Nc3n[nH]c4cc(Nc5ccccc5F)ccc34)cc2)CC1` [Compound 17, N-(6-((2-fluorophenyl)amino)-1H-indazol-3-yl)-4-(1-methylpiperidin-4-yl)benzamide]: the Tlast in data set [1] (iv) is 24 h. Moreover, in data set [1] (mouse, plasma, iv), the AUC(0-inf) was 1400 ng·h/mL, the area under the curve AUC(0-t) was found to be 1350 ng·h/mL and the half-life is 5.5 h. Moreover, the clearance in data set [1] (mouse, plasma, iv, read-out: CLp) was 47.7 mL/min/kg. In addition, the Vd in data set [1] (mouse, plasma, iv, read-out: Vz) stood at 22.8 L/kg. Also, in data set [1] (mouse, plasma, po), the AUC(0-inf) was determined as 726 ng·h/mL, the AUC(0-t) stood at 712 ng·h/mL, the Cmax came out at 178 nM and the Tmax is 1 h. In data set [1] (mouse, plasma, po), the bioavailability came to 53% and the half-life is 4.5 h. The Tlast in data set [1] (po) was found to be 24 h. In addition, the midpoint of inhibition in data set [2], the IC50, lay at 225 nM. This compound gave an IC50 in data set [3] of 222 nM. In addition, in data set [4], inhibition was half-maximal at 87 nM (IC50).
With `CN1CCC(c2ccc(C(=O)Nc3n[nH]c4nc(Nc5cccc(F)c5F)ccc34)cc2)CC1` [Compound 20, N-(6-((2,3-difluorophenyl)amino)-1H-pyrazolo[3,4-b]pyridin-3-yl)-4-(1-methylpiperidin-4-yl)benzamide], the IC50 in data set [2] was determined as 9 nM; in data set [3], 105 nM; in data set [5], 234 nM; in data set [4] it was 209 nM. In addition, the “EGFR kinase inhibition, result in words” value in data set [2] is “more active”. In addition, in data set [5], the “Inhibition of FynB-induced Tau(Y18)-phosphorylation, result in words” value is recorded as “best inhibitors”.
Take `Cc1ccc(Nc2ccc3c(NC(=O)c4ccc(C5CCN(C)CC5)cc4)n[nH]c3n2)cc1` [Compound 23, 4-(1-methylpiperidin-4-yl)-N-(6-(p-tolyamino)-1H-pyrazolo[3,4-b]pyridin-3-yl)benzamide]: the IC50 was no less than 1000 nM in data set [2], 2.6 nM in data set [3], 230 nM in data set [5] and 111 nM in data set [4].
As to `COCCN1CCC(c2ccc(C(=O)Nc3n[nH]c4nc(Nc5ccccc5F)ccc34)cc2)CC1` [Compound 25, N-(6-((2-fluorophenyl)amino)-1H-pyrazolo[3,4-b]pyridin-3-yl)-4-(1-(2-methoxyethyl)piperidin-4-yl)benzamide], the IC50 was 1770 nM in data set [5] and 238 nM in data set [4].
Take `Cc1ccc(Nc2ccc3c(NC(=O)c4ccc(C5CCN(C)CC5)cc4)n[nH]c3n2)c(F)c1` [Compound 30, N-(6-((2-fluoro-4-methylphenyl)amino)-1H-pyrazolo[3,4-b]pyridin-3-yl)-4-(1-methylpiperidin-4-yl)benzamide]: the IC50 in data set [2] stood at 155 nM; in data set [3] it was 1 nM; in data set [5], 669 nM; in data set [4], 115 nM. In addition, the “VEGFR2 kinase inhibition, result in words” value in data set [3] was “more potent”.
Take `COc1ccc(Nc2ccc3c(NC(=O)c4ccc(C5CCN(C)CC5)cc4)n[nH]c3n2)cc1F` [Compound 33, N-(6-((3-fluoro-4-methoxyphenyl)amino)-1H-pyrazolo[3,4-b]pyridin-3-yl)-4-(1-methylpiperidin-4-yl)benzamide]: the figures for the IC50 in data set [5] and in data set [4] were 1850 nM and 103 nM, respectively.
With `CN1CCN(c2ccc(C(=O)Nc3n[nH]c4nc(Nc5ccccc5F)ccc34)cc2)CC1` [Compound 48, N-(6-((2-fluorophenyl)amino)-1H-pyrazolo[3,4-b]pyridin-3-yl)-4-(4-methylpiperazin-1-yl)benzamide], in data set [2], the half-maximal inhibitory concentration (IC50) stood at 15 nM and the “EGFR kinase inhibition, result in words” value is “more active”. For the same compound, in data set [3], the IC50 worked out at 1 nM and the “VEGFR2 kinase inhibition, result in words” value is recorded as “more potent”. Moreover, in data set [5], the midpoint of inhibition, the IC50, lay at 259 nM and the “Inhibition of FynB-induced Tau(Y18)-phosphorylation, result in words” value is on record as “best inhibitors”. The compound also yielded an IC50 in data set [4] of 212 nM.
Regarding `CC(=O)N1CCN(c2ccc(C(=O)Nc3n[nH]c4nc(Nc5ccccc5F)ccc34)cc2)CC1` [Compound 52, 4-(4-acetylpiperazin-1-yl)-N-(6((2-fluorophenyl)amino)-1H-pyrazolo[3,4-b]pyridin-3-yl)benzamide], the IC50 in data set [5] came to 646 nM; in data set [4] it was 168 nM.
